From patent publication US8940885B2, “Cytotoxic nucleotides for targeted therapeutics” (Wake Forest University Health Sciences, priority 2006, dated 2015)

Legend:
[1] = biological target: T1, extracellular domain of PSMA (xPSM) (Homo sapiens, UniProt Q04609); settings: cited from earlier work
T1 construct: express the 706 amino acids comprising the extracellular domain of PSMA from Sf-9 (insect) cells using baculovirus; made in house; host or cells: Sf-9 insect cells, baculovirus (pBacGus3 vector); cDNA from LNCaP cells

[2] = UV thermal melt (hyperchromicity); type: physicochemical
Description: The structural characteristics of the parent aptamer and modified aptamers were determined using circular dichroism (CD) spectroscopy and ultraviolet (UV) hyperchromicity measurements. The data for the CD spectroscopy are shown in FIGS. 4A (modified aptamer) and 4B (parent aptamer). The circular dichroism curve acquired before thermal melting is in blue and that obtained post-melt is green. A maximum positive ellipticity is observed at 270 nm consistent with a highly folded structure, probably consisting of A-form helices. The circular dichroism spectra for the modified aptamers are indistinguishable from circular dichroism spectra for the parent aptamer. The UV thermal melt data is shown in FIGS. 4C (modified aptamer) and 4D (parent aptamer). The melting temperature for parent aptamer and the modified aptamers is about 55° C.

prostate cancer cells [3] = system: prostate cancer cells
prostate cancer cells [4] = system: prostate cancer cells; remark: listed apart in the source
[5] = system: PC3 prostate cancer cells
[6] = system: DU145 prostate cancer cells
DU145 PC cells = assay: Cytotoxicity of FdUMP[10], laboratory studies and NCI 60 cell line screen; type: cell-based
PC3 cells = assay: as above; type: cell-based, human
[7] = system: PC cells and normal prostatic epithelial cells; assay: Trypan blue exclusion assays; type: cell-based, human
Description: The cytotoxicity of the candidate modified aptamers is also evaluated with regard to prostate cells that have been obtained from normal prostate tissue derived from radical prostatectomies. A procedure for establishing primary human epithelial cell cultures from the disease-free regions of the tissue (based on histology) has been described (Peehl et al., In Vitro Cell Dev. Biol. 22: 90 (1986); Peehl et al., In Vitro Cell Dev. Biol. 24: 530-536 (1988); Barreto et al., Cancer Epidemiol. Biomarkers Prey. 9: 265-270 (2000). The cultures are grown in MCDB 105 medium (Sigma, St. Louis, Mo.) that has been supplemented with growth factors and hormones as described previously (Peehl et al., In Vitro Cell Dev Biol 22: 90 (1986)). Trypan blue exclusion is used as a marker of viable cells. The data are analyzed to identify those candidate modified aptamers sequences that are highly efficient at killing PC cells that express xPSM, but that are not cytotoxic towards normal prostate cells. Candidate modified aptamers that display the greatest differential cytotoxicity are further developed as drugs for the treatment of human PC.
(but not 5FU) is currently under investigation.

colon cancer cells = assay: Uptake of FdUMP[10] multimer in other cancer cells; type: cell-based; settings: other types of cancer cells (e.g. colon cancer)
LNCaP cells = assay: Cytotoxicity of FdUMP[10], laboratory studies and NCI 60 cell line screen; type: cell-based, human

T1 sequence (Q04609 44-750 limits assumed): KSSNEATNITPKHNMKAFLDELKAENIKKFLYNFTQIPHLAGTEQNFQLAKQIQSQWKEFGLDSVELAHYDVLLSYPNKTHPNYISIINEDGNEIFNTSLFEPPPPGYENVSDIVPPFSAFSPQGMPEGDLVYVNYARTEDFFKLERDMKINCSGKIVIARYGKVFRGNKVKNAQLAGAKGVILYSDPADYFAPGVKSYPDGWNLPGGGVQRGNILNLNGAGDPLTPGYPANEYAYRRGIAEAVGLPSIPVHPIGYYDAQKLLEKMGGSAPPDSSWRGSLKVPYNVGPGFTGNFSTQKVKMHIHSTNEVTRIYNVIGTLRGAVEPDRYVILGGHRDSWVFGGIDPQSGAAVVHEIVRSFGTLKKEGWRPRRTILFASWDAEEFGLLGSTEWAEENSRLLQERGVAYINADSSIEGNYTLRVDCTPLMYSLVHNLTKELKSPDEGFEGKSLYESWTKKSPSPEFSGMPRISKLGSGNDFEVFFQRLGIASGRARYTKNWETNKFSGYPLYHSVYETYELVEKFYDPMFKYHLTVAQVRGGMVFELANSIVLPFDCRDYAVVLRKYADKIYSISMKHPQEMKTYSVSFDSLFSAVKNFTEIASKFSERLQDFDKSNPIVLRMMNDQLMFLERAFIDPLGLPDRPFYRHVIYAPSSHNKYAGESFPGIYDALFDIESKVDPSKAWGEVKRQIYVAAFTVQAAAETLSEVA

Substance | binding affinity for xPSM [1] | stability of folded structure ([2]; 37° C.) | melting temperature ([2]; UV thermal melt) | cytotoxicity relative to 5FU or FdU (prostate cancer cells [3]) | drug concentrations at which cytotoxic towards prostate cancer cells (prostate cancer cells [3]) [nM] | effect of phosphatase or nucleotidase inhibitor on cytotoxicity (prostate cancer cells [4]) | uptake in multimeric form (prostate cancer cells [4]; prostate cancer cells) | tolerability in vivo | cytotoxicity relative to monomeric fluoropyrimidines (5FU, FdU, FdUMP) [5] | cytotoxicity relative to monomeric fluoropyrimidines (5FU, FdU, FdUMP) [6] | times more potent than 5FU (DU145 PC cells; DU145 PC cells) | GI50 (DU145 PC cells; DU145 cells, GI50 value from the NCI 60 cell line screen, read-out: IC50 (the source's name)) [nM] | sensitivity of PC3 cells (PC3 cells) | times more potent than 5FU (PC3 cells; PC3 cells) [times] | differential sensitivity between PC cells and normal prostatic epithelial cells [7] | uptake of multimer relative to prostate cancer cells (colon cancer cells) | sensitivity of LNCaP cells (LNCaP cells)
5′rGGGAGGACGAUGCGGAUCAGCCAUGUUUACGUCAC UCCUUGUCAAUCCUCAUCGGC-3′ (GGGAGGACGAUGCGGAUCAGCCAUGUUUACGUCACUCCUUGUCAAUCCUCAUCGGC; RNA, backbone not given here) [A10-3] | high affinity | stable at 37 °C | about 55 °C |  |  |  |  |  |  |  |  |  |  |  |  |  | 
FdUMP[10] |  |  |  | substantially more cytotoxic | 10 to 100 | Neither inhibitor substantially reduced the cytotoxicity | efficiently take up | very well-tolerated | substantially more cytotoxic | substantially more cytotoxic | 1,585 time | 5.01 | highly sensitive | 631 | large differential sensitivity | less efficient | highly sensitive
